Source: US7645885B2, “Non-steroidal antiandrogens” (The Regents of the University of California, priority 2005, dated 2010)

molecular target: T1, recombinant rat AR LBD (Rattus norvegicus, UniProt P15207); experiment: competition fluorescence polarization binding assay; conditions: relative binding affinity; ratio of Kd of test compound to Kd of DHT multiplied by 100
T1 construct: recombinant rat AR LBD
T1 sequence (P15207 651-882 limits assumed): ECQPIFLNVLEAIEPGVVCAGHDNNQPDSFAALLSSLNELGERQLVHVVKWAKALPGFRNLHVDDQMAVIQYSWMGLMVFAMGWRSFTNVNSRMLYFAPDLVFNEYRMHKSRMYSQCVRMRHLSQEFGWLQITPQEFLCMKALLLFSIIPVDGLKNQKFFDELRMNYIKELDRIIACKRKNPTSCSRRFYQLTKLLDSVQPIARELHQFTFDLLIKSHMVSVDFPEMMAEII
Description: Binding affinity of the synthesized ligands was evaluated by competition fluorescence polarization assay using recombinant rat AR LBD, and the results summarized in Table 1. All ligands with a bulky right-hand extension, such as compounds 18-20 in FIG. 5, performed poorly in this assay, with even the best compounds binding AR only weakly. […] In Table 1, RBA stands for relative binding affinity, and is defined as the ratio of Kd of the test compound to Kd of DHT multiplied by 100.

SMILES | RBA (DHT = 100)
CC12Cc3cn[nH]c3C=C1CCCC2CCCO (stereo not drawn) [Compound 12, 3-(4α-Methyl-4,4α,5,6,7,8-hexahydro-1H-benzo[f]indazol-5-yl)propan-1-ol] | 1
CC12Cc3cnn(-c4ccc(F)cc4)c3C=C1CCCC2CCCO (stereo not drawn) [Compound 16, 3-(1-[4-Fluorophenyl]-4α-Methyl-4,4α,5,6,7,8-hexahydro-1H-benzo[f]indazol-5-yl)propan-1-ol] | 19
CC12Cc3cn[nH]c3C=C1CCCC2CCc1ccc(CO)cc1 (centres unmarked) [Compound 18, {4-[2-(4a-Methyl-4,4a,5,6,7,8-hexahydro-1H-benzo[f]indazol-5-yl)-ethyl]-phenyl}-methanol] | <0.1
CC12Cc3cnoc3C=C1CCCC2CCc1ccc(CO)cc1 (centres unmarked) [Compound 19, {4-[2-(4a-Methyl-4,4a,5,6,7,8-hexahydro-naphtho[2,3-d]isoxazol-5-yl)-ethyl]-phenyl}-methanol] | <0.1
CC12Cc3cnn(-c4ccc(F)cc4)c3C=C1CCCC2CCc1ccc(CO)cc1 (centres unmarked) [Compound 20] | 0.12
